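Step 1: Grow cells in 96-well plates. Step 2: Expose to compound for 48 hours at 5 concentrations. Step 3: Interpolate endpoints linearly; if unreached, use highest concentration. The concentration for full growth arrest is given as TGI.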
Key:
Assay in all cases: NCI-60 cell line screen, 48 h
SK-OV-3 ovarian = system: SK-OV-3 ovarian
SR leukemia = system: SR leukemia
HOP-62 NSCLC = system: HOP-62 NSCLC
SK-MEL-5 melanoma = system: SK-MEL-5 melanoma
HL-60(TB) leukemia = system: HL-60(TB) leukemia
HT29 colon = system: HT29 colon
HCC-2998 colon = system: HCC-2998 colon
A549 NSCLC = system: A549 NSCLC
RPMI-8226 leukemia = system: RPMI-8226 leukemia
SK-MEL-2 melanoma = system: SK-MEL-2 melanoma
IGROV1 ovarian = system: IGROV1 ovarian
HCT-15 colon = system: HCT-15 colon
NCI-H522 lung = system: NCI-H522 lung
MOLT-4 leukemia = system: MOLT-4 leukemia
HCT-116 colon = system: HCT-116 colon
SK-MEL-28 melanoma = system: SK-MEL-28 melanoma
SF-295 CNS = system: SF-295 CNS
SF-268 CNS = system: SF-268 CNS
TK-10 renal = system: TK-10 renal
K-562 leukemia = system: K-562 leukemia
KM12 colon = system: KM12 colon
UACC-62 melanoma = system: UACC-62 melanoma
KM20L2 colon = system: KM20L2 colon
MALME-3M melanoma = system: MALME-3M melanoma
786-0 renal = system: 786-0 renal
HOP-92 NSCLC = system: HOP-92 NSCLC
SW-620 colon = system: SW-620 colon
NCI-H460 lung = system: NCI-H460 lung
OVCAR-8 ovarian = system: OVCAR-8 ovarian
LOX IMVI melanoma = system: LOX IMVI melanoma
SN12C renal = system: SN12C renal
COLO 205 colon = system: COLO 205 colon
DMS 114 small cell lung = system: DMS 114 small cell lung
OVCAR-3 ovarian = system: OVCAR-3 ovarian
RXF-631 renal = system: RXF-631 renal
SNB-19 CNS = system: SNB-19 CNS
NCI-H23 lung = system: NCI-H23 lung
CAKI-1 renal = system: CAKI-1 renal
DLD-1 colon = system: DLD-1 colon
XF 498 CNS = system: XF 498 CNS
RXF 393 renal = system: RXF 393 renal
SF-539 CNS = system: SF-539 CNS
OVCAR-5 ovarian = system: OVCAR-5 ovarian
ACHN renal = system: ACHN renal
NCI-H226 lung = system: NCI-H226 lung
U251 CNS = system: U251 CNS
EKVX NSCLC = system: EKVX NSCLC
M19-MEL melanoma = system: M19-MEL melanoma
LXFL 529 NSCLC = system: LXFL 529 NSCLC
UACC-257 melanoma = system: UACC-257 melanoma
CCRF-CEM leukemia = system: CCRF-CEM leukemia
DMS 273 small cell lung = system: DMS 273 small cell lung

SMILES: CCC12CCCN(Cc3ccccc3)C1c1c(n(C)c3ccccc13)[C@H](C(=O)OC)C2 (some centres not stated)
- TGI (SK-OV-3 ovarian): > 239 µM
- TGI (SR leukemia): > 239 µM
- TGI (HOP-62 NSCLC): > 239 µM
- TGI (SK-MEL-5 melanoma): > 239 µM
- TGI (HL-60(TB) leukemia): > 239 µM
- TGI (HT29 colon): 142 µM
- TGI (HCC-2998 colon): > 239 µM
- TGI (A549 NSCLC): > 239 µM
- TGI (RPMI-8226 leukemia): > 239 µM
- TGI (SK-MEL-2 melanoma): > 239 µM
- TGI (IGROV1 ovarian): > 239 µM
- TGI (HCT-15 colon): > 239 µM
- TGI (NCI-H522 lung): > 239 µM
- TGI (MOLT-4 leukemia): > 239 µM
- TGI (HCT-116 colon): > 239 µM
- TGI (SK-MEL-28 melanoma): > 239 µM
- TGI (SF-295 CNS): > 239 µM
- TGI (SF-268 CNS): > 239 µM
- TGI (TK-10 renal): > 239 µM
- TGI (K-562 leukemia): > 239 µM
- TGI (KM12 colon): > 239 µM
- TGI (UACC-62 melanoma): > 239 µM
- TGI (KM20L2 colon): > 239 µM
- TGI (MALME-3M melanoma): > 239 µM
- TGI (786-0 renal): > 239 µM
- TGI (HOP-92 NSCLC): 238 µM
- TGI (SW-620 colon): > 239 µM
- TGI (NCI-H460 lung): > 239 µM
- TGI (OVCAR-8 ovarian): > 239 µM
- TGI (LOX IMVI melanoma): > 239 µM
- TGI (SN12C renal): > 239 µM
- TGI (COLO 205 colon): > 239 µM
- TGI (DMS 114 small cell lung): > 239 µM
- TGI (OVCAR-3 ovarian): > 239 µM
- TGI (RXF-631 renal): > 239 µM
- TGI (SNB-19 CNS): > 239 µM
- TGI (NCI-H23 lung): > 239 µM
- TGI (CAKI-1 renal): > 239 µM
- TGI (DLD-1 colon): > 239 µM
- TGI (XF 498 CNS): > 239 µM
- TGI (RXF 393 renal): > 239 µM
- TGI (SF-539 CNS): > 239 µM
- TGI (OVCAR-5 ovarian): > 239 µM
- TGI (ACHN renal): > 239 µM
- TGI (NCI-H226 lung): > 239 µM
- TGI (U251 CNS): > 239 µM
- TGI (EKVX NSCLC): > 239 µM
- TGI (M19-MEL melanoma): > 239 µM
- TGI (LXFL 529 NSCLC): > 239 µM
- TGI (UACC-257 melanoma): > 239 µM
- TGI (CCRF-CEM leukemia): > 239 µM
- TGI (DMS 273 small cell lung): > 239 µM

From PubChem BioAssay (NCI)
